What was measured:
Assay type in all cases: functional
Rattus norvegicus [1] = test: Maximal change in mean arterial blood pressure comparing MAP immediately prior to and up to 240 min after oral dose in rat
Rattus norvegicus [2] = test: Maximal change in mean arterial blood pressure comparing MAP immediately prior to and up to 240 min after oral dose of 0.1 mgkg of compound in rat
Rattus norvegicus [3] = test: Dose to produce 30% reduction in mean arterial pressure in rat when administered perorally; settings: Artery, po
Rattus norvegicus [4] = test: Maximal change in mean arterial blood pressure comparing MAP immediately prior to and up to 240 min after oral dose of 1 mgkg of compound in rat
Rattus norvegicus [5] = test: Maximal change in mean arterial blood pressure comparing MAP immediately prior to and up to 240 min after oral dose of 0.3 mgkg of compound in rat

| Compound | Change MAP (Rattus norvegicus [1]) | ED30 (Rattus norvegicus [3]) | also measured |
| --- | --- | --- | --- |
| CC1(C)Oc2ccsc2[C@@H](NC(=O)c2ccccc2)[C@@H]1O | 35% |  |  |
| CC(=O)c1cc2c(s1)[C@@H](NC(=O)c1ccco1)[C@H](O)C(C)(C)O2 | 38% |  |  |
| CC(=O)c1cc2c(s1)[C@@H](NC(=O)c1ccc(F)cc1F)[C@H](O)C(C)(C)O2 | 59% |  | Change MAP (Rattus norvegicus [2]): 16% |
| CC1(C)Oc2cc([N+](=O)[O-])sc2[C@@H](N2CCCCC2=O)[C@@H]1O |  | 0.015 mg/kg | Change MAP (Rattus norvegicus [2]): 63% |
| CC(=O)c1cc2c(s1)[C@@H](NC(=O)c1ccc([N+](=O)[O-])cc1)[C@H](O)C(C)(C)O2 | 63% | 0.89 mg/kg |  |
| CC(=O)c1cc2c(s1)[C@@H](NC(=O)c1cccc([N+](=O)[O-])c1)[C@H](O)C(C)(C)O2 | 63% |  | Change MAP (Rattus norvegicus [4]): 17% |
| CC(=O)c1cc2c(s1)[C@@H](NC(=O)c1ccc(C(F)(F)F)cc1)[C@H](O)C(C)(C)O2 | 26% |  |  |
| CC(=O)c1cc2c(s1)[C@@H](NC(=O)c1cccnc1)[C@H](O)C(C)(C)O2 | 29% |  |  |
| CC(=O)c1cc2c(s1)[C@@H](NC(=O)c1cccc(Cl)c1)[C@H](O)C(C)(C)O2 | 59% |  | Change MAP (Rattus norvegicus [5]): 17% |
| COc1ccc(C(=O)N[C@@H]2c3sc(C(C)=O)cc3OC(C)(C)[C@H]2O)cc1 | 20% |  |  |
| CC(=O)c1cc2c(s1)[C@@H](NC(=O)c1ccccc1F)[C@H](O)C(C)(C)O2 | 59% |  | Change MAP (Rattus norvegicus [4]): -17% |
| CC(=O)c1cc2c(s1)[C@@H](NC(=O)c1ccc(C)cc1)[C@H](O)C(C)(C)O2 | 10% |  |  |
| CC(=O)c1cc2c(s1)[C@@H](NC(=O)c1ccc(F)cc1)[C@H](O)C(C)(C)O2 | 75% | 0.059 mg/kg |  |
| CC1(C)Oc2cc([N+](=O)[O-])sc2[C@@H](N2Cc3ccccc3C2=O)[C@@H]1O |  | 0.22 mg/kg |  |
| CC(=O)c1cc2c(s1)[C@@H](NC(=O)c1ccc(Cl)cc1)[C@H](O)C(C)(C)O2 | 60% | 0.11 mg/kg |  |
| CC1(C)Oc2cc([N+](=O)[O-])sc2[C@@H](NC(=O)c2ccccc2)[C@@H]1O | 38% |  |  |
| CC(=O)c1cc2c(s1)[C@@H](NC(=O)c1ccc(F)c(F)c1)[C@H](O)C(C)(C)O2 | 62% | 0.099 mg/kg |  |
| CC(=O)c1cc2c(s1)[C@@H](NC(=O)c1ccccc1)[C@H](O)C(C)(C)O2 | 55% | 0.2 mg/kg |  |
| CC1(C)Oc2cc([N+](=O)[O-])sc2[C@@H](NC(=O)c2ccc([N+](=O)[O-])cc2)[C@@H]1O | 29% |  |  |
| CC1(C)Oc2ccc(OC(F)(F)F)cc2[C@@H](N2Cc3ccccc3C2=O)[C@@H]1O [CELIKALIM] |  | 0.5 mg/kg |  |
| CC1(C)Oc2ccc(C#N)cc2[C@@H](N2CCCC2=O)[C@@H]1O [CROMAKALIM] | 47% | 0.19 mg/kg |  |
